Assay results reported in the OPERA property sets (Mansouri et al. 2018).
Converted amounts (≈) assume the structure as drawn.

Conditions: for solubility: 21 °C

Structure (SMILES): CCOC(=O)CN(C)C(=O)COC(=O)c1ccccc1OC(C)=O
- logP: 1.67

Structure (SMILES): CC(=O)Oc1ccccc1C(=O)OCC(=O)N(C(C)C)C(C)C
- logP: 2.03

Structure (SMILES): CC(=O)OCOC(=O)c1ccccc1OC(C)=O
- logP: 1.42

Structure (SMILES): CCNC(=O)COC(=O)c1ccccc1OC(C)=O
- logP: 0.9

Structure (SMILES): CC(=O)Nc1ccc(OC(=O)c2ccccc2OC(C)=O)cc1
- logP: 2.15
- solubility: 63.8 µM (≈ 20 µg/mL)

Structure (SMILES): CCOC(=O)COC(=O)c1ccccc1OC(C)=O
- logP: 1.67

Structure (SMILES): CC(=O)Oc1ccccc1C(=O)OCS(C)=O (stereo not given)
- logP: 0.11

Structure (SMILES): CC(=O)Oc1ccccc1C(=O)OCC(=O)N(C)CC(N)=O
- logP: -0.46

Structure (SMILES): CC(=O)Oc1ccccc1C(=O)OCC(=O)NCC(N)=O
- logP: -0.43

Structure (SMILES): CSCOC(=O)c1ccccc1OC(C)=O
- logP: 1.94
- solubility: 2290 µM (≈ 550 µg/mL)

Structure (SMILES): CC(=O)Oc1ccccc1C(=O)OCC(=O)N(C)C
- logP: 0.38

Structure (SMILES): CC(=O)Oc1ccccc1C(=O)Oc1ccccc1
- logP: 2.88
- solubility: 78 µM (≈ 20 µg/mL)
